Source: US4269717A, “Boiler additives for oxygen scavenging” (priority 1980, dated 1981)
Read-outs that look alike come from different tables or passages of the source.

What was measured:
[1] = Protocol: A second more extensive group of potential oxygen scavengers were compared, again using a small laboratory boiler and oxygen saturated feed water containing sodium hydroxide. […] The hydrazine salts among this group are no less toxic than hydrazine and therefore were eliminated from further study. […] In addition, the carbohydrazide was preferred because it is a solid at room temperature and could therefore be used in dry formulations.
INITIAL SCREENING AT 227-239° F.

Solubility in water = format: physicochemical
[2] = Carbohydrazide vs. hydrazine in oxygen removal, once-through apparatus (Table III); conditions: for % O2 Removal / Final O2: initial O2 7.7 ppm, 227-239° F., pH about 10.5
Protocol: A once-through experimental apparatus for simulating boiler water transport was utilized in this example. Water temperature in this example was maintained at about 227°-239° F. and pH at about 10.5.

[3] = Oxygen scavenging in heated copper coil apparatus (FIG. 1); conditions: 135° F.; pH 9.0; initial O2 7.7 ppm; corresponding scavenger:oxygen levels
Protocol: Another series of tests comparing hydrazine and carbohydrazide were carried out with the results presented in graphic form in FIG. 1. These tests were carried out at a temperature of 135° F. and a pH of 9.0 to prevent hydrolysis of the carbohydrazide.
The apparatus used including a reciprocating pump drawing water from a water reservoir and moving it through a heated copper coil at a rate of about 37 ml/minute. The coil was mounted in a cooling column and dissolved oxygen was measured at its outlet. The initial oxygen reading taken at this point for these tests was 7.7 ppm.
After the initial oxygen reading was taken, the scavenger being tested was injected into the feed line before the reciprocating pump.

[4] = Commercial scale boiler comparison of oxygen scavenging
Protocol: Commercial scale comparisons were made between carbohydrazide and hydrazine. The tests were run on a system including a deaerator which treats a mixture of feed water and condensate at 60 p.s.i. and 300°-310° F. before it is fed to a first stage heater at 160 p.s.i. and 360°-366° F. and a second stage heater at 400 p.s.i. and 446°-450° F. The second stage heater then feeds into three boilers: a combination boiler at 1,275 p.s.i., a first power boiler at 1,275 p.s.i. and a second power boiler at 400 p.s.i. The treatment chemicals were fed alternatively at the deaerator and just down line from it.

[5] = Carbohydrazide low temperature hydrolysis (Table V); format: physicochemical; parameters: Hydrazine By Hydrolysis: unit not given here; conditions: for Hydrazine By Hydrolysis / Percent Hydrolysis / ppm Hydrazine: 1,000 ppm
Protocol: Low temperature hydrolysis studies of carbohydrazide were carried out using reagent grade carbohydrazide containing approximately 2.7±0.1% hydrazine as an impurity. A 1,000 ppm carbohydrazide solution and a 100 ppm hydrazine solution were prepared with deaerated, deionized water. Half of the carbohydrazide solution was adjusted to pH 10.2 with sodium hydroxide and the other half was left at its original pH of 6.9. The solutions were poured into Nessler tubes to overflowing and sealed with stoppers fitted with hypodermic needles to allow pressure release with minimum air contact. Four samples of both of the carbohydrazide solutions and two samples of the hydrazine control were stored at varying temperatures for varying periods of time, all as reported in Table V below.

[6] = format: physicochemical; conditions: for Final Hydrazine Level / Percent Hydrolysis: fed at 100 ppm, pH 8.0, 600 p.s.i.
Description: High temperature hydrolysis studies were next carried out again using reagent grade carbohydrazide containing approximately 2% hydrazine as an impurity. The apparatus used in this work was the once-through experimental apparatus for simulating boiler water transport referred to in Example 2, with feedwater pH set at 8.0 and system pressure at 600 p.s.i.
^1 Carbohydrazide was fed at 100 ppm; complete hydrolysis of the
carbohydrazide would theoretically yield 71.1 ppm N2 H4.

[7] = pH 6.9, Room Temp. (77° F.), 2 days
[8] = pH 6.9, Room Temp. (77° F.), 4 days
[9] = pH 6.9, Room Temp. (77° F.), 6 days
[10] = pH 10.2, Room Temp. (77° F.), 2 days
[11] = pH 10.2, Room Temp. (77° F.), 4 days
[12] = pH 10.2, Room Temp. (77° F.), 6 days
[13] = 282 °F., residence time 14.5 min
[14] = 343 °F., residence time 14.5 min
[15] = 400 °F., residence time 14.5 min
[16] = 400 °F., residence time 15.0 min

## NNC(=O)NN [Carbohydrazide, N, N' diaminourea]
[1]
  Scavenger ranking of the remaining two compounds: the best scavenger
[1]; 227-239° F., Table II
  Oxygen scavenging activity relative to hydrazine: activity comparable to hydrazine
[1]; initial O2 40 ppb, 227-239° F.
  % O2 Removal: 87.5%
  Final O2: 5 ppb
Solubility in water
  Solubility in water: freely soluble in water
[2]; ppm scavenger/ppm O2 0.05/1
  % O2 Removal: 14.3%
  Final O2: 6.60 ppm
[2]; ppm scavenger/ppm O2 0.5/1
  % O2 Removal: 57.4%
  Final O2: 3.28 ppm
[2]; ppm scavenger/ppm O2 5.0/1
  % O2 Removal: 98.7%
  Final O2: 0.10 ppm
[2]; vs hydrazine, Table III
  Amount needed for oxygen removal achieved with a given concentration of hydrazine: half as much
[3]
  Oxygen scavenging relative to hydrazine: superior to the hydrazine
[4]; carbohydrazide levels half those of hydrazine
  Oxygen scavenging relative to hydrazine, various points: comparable or superior to the hydrazine
[4]; just past first stage heater, carbohydrazide at 50% of hydrazine level
  Oxygen scavenging relative to hydrazine at 360° F.: scavenged the oxygen more efficiently than the hydrazine
[4]; just past second stage heater, carbohydrazide at 50% of hydrazine level
  Oxygen scavenging relative to hydrazine at 446° F.: scavenged the oxygen more efficiently than the hydrazine
[4]; just past the deaerator, carbohydrazide at 50% of hydrazine level
  Oxygen scavenging relative to hydrazine at 300° F.: comparable with the hydrazine
[5]; 120° F.
  Hydrolysis at 120° F.: no hydrolysis occured
[5]; 180° F.
  Hydrolysis above the original free hydrazine level: 3%
[5]; pH 6.9, 120° F., 2 days
  Hydrazine By Hydrolysis: 0
  Percent Hydrolysis: 2.7%
  ppm Hydrazine: 18.9 ppm
[5]; pH 6.9, 120° F., 4 days
  Hydrazine By Hydrolysis: 0
  Percent Hydrolysis: 2.6%
  ppm Hydrazine: 18.8 ppm
[5]; pH 6.9, 120° F., 6 days
  Hydrazine By Hydrolysis: 0
  Percent Hydrolysis: 2.6%
  ppm Hydrazine: 18.3 ppm
[5]; pH 6.9, 180° F., 2 days
  Hydrazine By Hydrolysis: 1.3
  Percent Hydrolysis: 4.0%
  ppm Hydrazine: 28.4 ppm
[5]; pH 6.9, 180° F., 4 days
  Hydrazine By Hydrolysis: 2.3
  Percent Hydrolysis: 5.0%
  ppm Hydrazine: 35.4 ppm
[5]; pH 6.9, 180° F., 6 days
  Hydrazine By Hydrolysis: 3.0
  Percent Hydrolysis: 5.7%
  ppm Hydrazine: 40.2 ppm
[5]; [7]
  Hydrazine By Hydrolysis: 0
  Percent Hydrolysis: 2.8%
  ppm Hydrazine: 19.7 ppm
[5]; [8]
  Hydrazine By Hydrolysis: 0
  Percent Hydrolysis: 2.7%
  ppm Hydrazine: 19.1 ppm
[5]; [9]
  Hydrazine By Hydrolysis: 0
  Percent Hydrolysis: 2.6%
  ppm Hydrazine: 18,7 ppm
[5]; pH 6.9, time 0
  Hydrazine By Hydrolysis: 0
  Percent Hydrolysis: 2.7%
  ppm Hydrazine: 19.0 ppm
[5]; pH 10.2, 120° F., 2 days
  Hydrazine By Hydrolysis: 0
  Percent Hydrolysis: 2.8%
  ppm Hydrazine: 20.0 ppm
[5]; pH 10.2, 120° F., 4 days
  Hydrazine By Hydrolysis: 0
  Percent Hydrolysis: 2.8%
  ppm Hydrazine: 19.8 ppm
[5]; pH 10.2, 120° F., 6 days
  Hydrazine By Hydrolysis: 0
  Percent Hydrolysis: 2.7%
  ppm Hydrazine: 19.3 ppm
[5]; pH 10.2, 180° F., 2 days
  Hydrazine By Hydrolysis: 1.4
  Percent Hydrolysis: 4.1%
  ppm Hydrazine: 29.0 ppm
[5]; pH 10.2, 180° F., 4 days
  Hydrazine By Hydrolysis: 2.1
  Percent Hydrolysis: 4.8%
  ppm Hydrazine: 34.2 ppm
[5]; pH 10.2, 180° F., 6 days
  Hydrazine By Hydrolysis: 2.7
  Percent Hydrolysis: 5.4%
  ppm Hydrazine: 38.6 ppm
[5]; [10]
  Hydrazine By Hydrolysis: 0
  Percent Hydrolysis: 2.8%
  ppm Hydrazine: 20.2 ppm
[5]; [11]
  Hydrazine By Hydrolysis: 0.1
  Percent Hydrolysis: 2.9%
  ppm Hydrazine: 20.5 ppm
[5]; [12]
  Hydrazine By Hydrolysis: 0
  Percent Hydrolysis: 2.8%
  ppm Hydrazine: 20.1 ppm
[5]; pH 10.2, time 0
  Hydrazine By Hydrolysis: 0
  Percent Hydrolysis: 2.7%
  ppm Hydrazine: 19.1 ppm
[5]; pH range of 7-10
  pH dependence of hydrolysis values: did not vary significantly
[5]; room temperature
  Hydrolysis at room temperature: no hydrolysis occured
[6]; 220° F.
  Hydrolysis at 220° F.: minimal
[6]; 282° F.
  Hydrolysis at 282° F.: minimal
[6]; [13]
  Final Hydrazine Level: 7 ppm
  Percent Hydrolysis: 7.0%
[6]; 340° F. through 400° F.
  Hydrolysis at 340° F. through 400° F.: still not complete
[6]; [14]
  Final Hydrazine Level: 45 ppm
  Percent Hydrolysis: 60.5%
[6]; [15]
  Final Hydrazine Level: 59 ppm
  Percent Hydrolysis: 80.2%
[6]; [16]
  Final Hydrazine Level: 61 ppm
  Percent Hydrolysis: 83.0%
[6]; about 220° F.
  Hydrazine found: less than 7%
[6]; residence time 14.5 min
  Percent Hydrolysis: 0%
[6]; temperature 21 °F. (so in the source), residence time 14.5 min
  Final Hydrazine Level: 2 ppm
